Reference: patent US20120238491A1, “IMMUNOLOGICALLY ACTIVE LIPOPEPTIDES AND METHODS FOR USE THEREOF” (THERIMUNEX PHARMACEUTICALS, INC., priority 2009, published 2012)

Columns and labels:
IL-6 mRNA = IL-6 mRNA expression in human fibroblasts; type: cell-based; conditions: for IL-6 mRNA elevation relative to a -actin control: 24 hours, p<0.05; for IL-6 mRNA expression increase relative to untreated control: 24 h, normalized to -actin (FIG. 1)
Experimental: (§1) mRNA Expression Experiments. Normal primary human fibroblasts obtained from the Coriell Institute (Camden, N.J.) were cultured in 70 mm dishes in DMEM supplemented with 10% FBS and 1× penicillin/streptomycin at 37° C. and 5% CO2. Human fibroblasts were incubated in the presence of the serum fractions, compound pDAG, the peptide moiety of pDAG, or diacylglycerol. In the initial experiments we examined the differences between fibroblasts treated with the various serum fractions, synthetic pDAG (the peptide moiety from pDAG or diacylglycerol), fibroblasts treated with LPS as a positive control, and fibroblasts without treatment. The culture medium was stored at −80° C. for ELISA of the excreted cytokine proteins (see below). Total RNA from fibroblasts was extracted using the RNeasy Mini kit (Qiagen, Valencia, Calif.) according to the manufacturer's protocol. To verify the expression of transcripts; 2.0 μg of total RNA was reverse-transcribed using Super-script-III reverse transcriptase (Invitrogen, Carlsbad Calif.), according to the manufacturer's protocol. Transcripts were quantified using SYBR Green PCR amplification (Perkin Elmer, Waltham Mass.). Primers employed in these studies are outlined in Table 6, below. All transcripts were normalized to β-actin. Briefly, 0.4 μg/μL of cDNA was tested with 10 μM of each specific primer and 1× SYBR Green in a total volume of 20 uL.
(§2) Lipofection Studies. Cells were cultured so that at the time of transfection they were 50-80% confluent. […] PLUS reagent (0.5 μL) and lipofectamine (1 μL) were then added to the peptide Opti-MEM solution, vortexed and incubated at room temperature for 30 min. Five hundred microliters of complete DMEM was added to the fibroblasts and 0.6 μL of the peptide/lipofectamine was added and allowed to incubate overnight. RNA was extracted and processed as described above.
(§3) Bioassays. The fractions generated from dialysis (methanol/chloroform soluble, methanol/chloroform insoluble, dialysis retentate, and the fractions collected from reversed phase HPLC) were taken to dryness by lyophilization. The freeze-dried solids were weighed and dissolved in the appropriate volume of deionized water to give a final concentration of 1 mg/mL and assayed for mRNA expression (IL-6, IL-8, MIP1α, and MIP1β) in human fibroblasts.

Lability to hydrolysis = type: physicochemical; conditions: acidic and basic conditions
Experimental: The C8 RP-HPLC peaks eluting between 4.83 and 9.36 min. in a non-purified fraction containing compound pDAG are hydrolysis products of compound pDAG. Therefore, the classical degradation approach to natural product structure elucidation was used. The purified compound pDAG (as a tryptophan complex) was subjected to mild acid hydrolysis, in situ N-terminal sulfonation, and analysis of the hydrolysis products to identify peptide fragments that would account for the entire structure of pDAG.
Hydrolysis and Derivatization of the Natural Product (pDAG). […] Therefore, […] of native pDAG was subjected to mild acid hydrolysis conditions (1 N HCl in phosphate buffered saline) for 18 hours at 25° C. The post-reaction buffer salts were removed using a C18 spin column (ThermoFisher Scientific) and the hydrolysis products were eluted from the column using 50% CH3CN/0.1% TFA. The final product was brought to dryness by evaporation in vacuo at 4° C. The hydrolysis products were derivatized using the N-terminal sulfonation reagent, 4-sulfophenylisothiocyanate, and analyzed in situ by MALDITOF in an -cyano-4-hydroxycinnamic acid matrix using the method described by Wang. See Wang, D.; Kalb, S. R.; Cotter, R. J. Rapid Commun. Mass Spectrom. 2004, 18, 96-102.

MIP-1 mRNA = MIP-1 mRNA expression in human fibroblasts; type: cell-based; conditions: for MIP-1 mRNA expression increase: natural pDAG 1:100 dilution, relative to -actin; for MIP-1α expression in fibroblasts (in words): peptide transfected
Experimental: as §1, §3

MCP-1 mRNA = MCP-1 mRNA expression in human fibroblasts; type: cell-based; conditions: for MCP-1 mRNA increase: relative to -actin; for MCP-1 expression in fibroblasts (in words): peptide transfected
Experimental: as §1, §3

IL-1 mRNA = IL-1 mRNA expression in human fibroblasts; type: cell-based
Experimental: as §1, with “Therefore we speculated that the diacylglycerol moiety enabled the peptide to cross the cell membrane. To test this hypothesis and to ascertain the biological role of the diacylglycerol moiety in compound pDAG, if any, the peptide moiety transfected into human fibroblasts or diacylglycerol alone were evaluated by measuring the expression of mRNA” for “mRNA”, “(IL-1, IL-6, IL-8, IL-18, and IL-33). […] Diacylglycerol could stimulate mRNA expression of IL-33 and IL-18, but not IL-1 in fibroblasts. […]” for “Expression Experiments.”, “uL. Lipofection Studies. Cells were cultured so that at the time of transfection they were 50-80% confluent. Five microliters of the stock peptide moiety from pDAG was diluted in Opti-MEM Reduced Serum Medium to give a final concentration of 5 μg/mL. […]” for “uL.”

human fibroblasts = experiment: Inflammatory cytokine and chemokine production by human fibroblasts (overall stimulation); type: cell-based
Experimental: as §1
Lipofection Studies. Cells were cultured so that at the time of transfection they were 50-80% confluent. […] PLUS reagent (0.5 μL) and lipofectamine (1 μL) were then added to the peptide Opti-MEM solution, vortexed and incubated at room temperature for 30 min. Five hundred microliters of complete DMEM was added to the fibroblasts and 0.6 μL of the peptide/lipofectamine was added and allowed to incubate overnight.

IL-8 mRNA = IL-8 mRNA expression in human fibroblasts; type: cell-based
Experimental: as §1, §2
Bioassays. The fractions generated from dialysis (methanol/chloroform soluble, methanol/chloroform insoluble, dialysis retentate, and the fractions collected from reversed phase HPLC) were taken to dryness by lyophilization. […]

IL-33 mRNA = IL-33 mRNA expression in human fibroblasts; type: cell-based
Experimental: Therefore we speculated that the diacylglycerol moiety enabled the peptide to cross the cell membrane. To test this hypothesis and to ascertain the biological role of the diacylglycerol moiety in compound pDAG, if any, the peptide moiety transfected into human fibroblasts or diacylglycerol alone were evaluated by measuring the expression of mRNA (IL-1, IL-6, IL-8, IL-18, and IL-33). […] Diacylglycerol could stimulate mRNA expression of IL-33 and IL-18, but not IL-1 in fibroblasts. […] Normal primary human fibroblasts obtained from the Coriell Institute (Camden, N.J.) were cultured in 70 mm dishes in DMEM supplemented with 10% FBS and 1× penicillin/streptomycin at 37° C. and 5% CO2. Human fibroblasts were incubated in the presence of the serum fractions, compound pDAG, the peptide moiety of pDAG, or diacylglycerol. In the initial experiments we examined the differences between fibroblasts treated with the various serum fractions, synthetic pDAG (the peptide moiety from pDAG or diacylglycerol), fibroblasts treated with LPS as a positive control, and fibroblasts without treatment. The culture medium was stored at −80° C. for ELISA of the excreted cytokine proteins (see below). […] Transcripts were quantified using SYBR Green PCR amplification (Perkin Elmer, Waltham Mass.). […]

IL-18 mRNA = IL-18 mRNA expression in human fibroblasts; type: cell-based
Experimental: as §1, with “Therefore we speculated that the diacylglycerol moiety enabled the peptide to cross the cell membrane. To test this hypothesis and to ascertain the biological role of the diacylglycerol moiety in compound pDAG, if any, the peptide moiety transfected into human fibroblasts or diacylglycerol alone were evaluated by measuring the expression of mRNA” for “mRNA”, “(IL-1, IL-6, IL-8, IL-18, and IL-33). […] Diacylglycerol could stimulate mRNA expression of IL-33 and IL-18, but not IL-1 in fibroblasts. […]” for “Expression Experiments.”, “uL. Lipofection Studies. Cells were cultured so that at the time of transfection they were 50-80% confluent. Five microliters of the stock peptide moiety from pDAG was diluted in Opti-MEM Reduced Serum Medium to give a final concentration of 5 μg/mL. PLUS reagent (0.5 μL) and lipofectamine (1 μL) were then added to the peptide Opti-MEM solution, vortexed and incubated at room temperature for 30 min. Five hundred microliters of complete DMEM was added to the fibroblasts and 0.6 μL of the peptide/lipofectamine was added and allowed to incubate overnight. RNA was extracted and processed as described above.” for “uL.”

IgM production = experiment: Administration to rabbits, adjuvant effect on IgM production; type: in vivo; conditions: administered with other drugs
[1] = tested on: established bacterial and viral infections; experiment: Administration to dogs, survival rate; type: in vivo; conditions: various amounts
C. pneumonia = C. pneumonia load in THP-1 cells; type: cell-based; conditions: 25 ng/ml and 50 ng/ml
Excerpt: The pDAG produced in accordance with the invention is believed to induce fibroblast IL-6 expression similar to that of the natural product, and to induce fibroblast IL-8 mRNA and protein expression, to increase MCP-1 expression and to induce MIP-1alpha.

[2] = tested on: established bacterial and viral infections; experiment: Administration to cows, number of white blood cells; type: in vivo; conditions: various amounts
HBV = HBV viral load in hepatocytes; type: cell-based; conditions: 25 to 400 ng/ml
IL-8 protein = experiment: ELISA for secreted IL-8 protein from human fibroblasts; type: cell-based; conditions: 0.3 to 3 ng/mL
Experimental: Fibroblasts were treated with various concentrations of synthetic pDAG for 24 hours; the media were reserved for ELISA assays of IL-6 and IL-8, and mRNA was extracted from the cells to measure all four cytokines IL-6 mRNA was elevated 20% in response to synthetic pDAG and 40% with natural pDAG relative to a -actin control (p<0.05). […] Compound pDAG induced IL-8 expression by about 5-fold compared to untreated fibroblasts, in dose-response studies (FIG. 2). […] The MCP-1 and MIP-1 mRNA expression in human fibroblasts incubated with approximately equivalent amounts of natural pDAG (1:100 dilution) and synthetic pDAG (3 ng/mL). Both synthetic pDAG and the natural product induced a 3-fold increase in MCP-1 mRNA relative to the -actin control and increased MIP-1α mRNA expression relative to -actin by 15% (FIG. 3).
ELISA for IL-8 Protein. Human IL-8 was measured by ELISA according to the manufacturer's specifications (eBioscience San Diego, Calif.) in the supernatants of fibroblasts cultured in complete DMEM with varying amounts of pDAG. Briefly, high affinity binding plates were coated with anti-human IL-8 overnight at 4° C. Wells were washed with Wash Buffer five times at 1 min. each wash and blocked with Assay Diluent for 60 min. at room temp. […] The reaction was halted with Stop Solution and the plate read at 450 nm with wavelength subtraction at 570 nm.

[3] = transfected peptide 10 ng/mL (~3 nM)
[4] = increasing concentrations of synthetic pDAG

1-peptidyl-2-arachidonoyl-3-stearoyl glyceride [natural pDAG]
IL-6 mRNA elevation relative to a -actin control (IL-6 mRNA): 40%
IL-6 mRNA expression increase relative to untreated control (IL-6 mRNA; natural pDAG 1:100 dilution): ~30%
lability to hydrolysis (Lability to hydrolysis; listed as Native pDAG): labile to acid hydrolysis
lability to hydrolysis (Lability to hydrolysis; listed as serum-derived compound pDAG): especially labile to hydrolysis
MIP-1 mRNA expression increase (MIP-1 mRNA): ~60%
MIP-1 mRNA expression increase (MIP-1 mRNA; listed as natural product): 15%
MCP-1 mRNA increase (MCP-1 mRNA; natural pDAG 1:100 dilution): 3 fold

acALYDKGYTSKEQKDCVGI [peptide moiety of pDAG]
IL-1 mRNA vs untreated or lipofectamine-only fibroblasts (IL-1 mRNA; [3]): substantially increased
IL-6 mRNA vs untreated or lipofectamine-only fibroblasts (IL-6 mRNA; [3]): substantially increased
fold higher concentration than pDAG needed for comparable responses (human fibroblasts; peptide moiety, not transfected): 1,000 fold
IL-8 mRNA vs untreated or lipofectamine-only fibroblasts (IL-8 mRNA; [3]): substantially increased
MIP-1α expression in fibroblasts (in words) (MIP-1 mRNA): increased expression
MCP-1 expression in fibroblasts (in words) (MCP-1 mRNA): increased expression
IL-33 mRNA vs untreated or lipofectamine-only fibroblasts (IL-33 mRNA; [3]): substantially increased
IL-18 mRNA vs untreated or lipofectamine-only fibroblasts (IL-18 mRNA; [3]): substantially increased
increase in IL-18 mRNA expression (IL-18 mRNA; transfected peptide, ~10 nM): > 3 fold

1-peptidyl-2-arachidonoyl-3-stearoyl glyceride [pDAG]
induction of IL-1alpha (IL-1 mRNA): found to induce
induction of IL-1beta (IL-1 mRNA): found to induce
IL-6 mRNA elevation relative to a -actin control (IL-6 mRNA; listed as synthetic pDAG): 20%
IL-6 mRNA expression increase relative to untreated control (IL-6 mRNA; synthetic pDAG 5 ng/mL): ~30%
adjuvant effect in terms of IgM production (IgM production): significant adjuvant effect
EC99 (apparent / possible maximum effective concentration) (human fibroblasts; pDAG, human fibroblasts, cytokine and chemokine production): 3 ng/mL
EC99 (human fibroblasts; pDAG, signaling in human fibroblasts): ~1 nM
IL-8 expression induction compared to untreated fibroblasts (IL-8 mRNA; dose-response studies (FIG. 2), 24 hours): about 5 fold
IL-8 mRNA expression dose response (IL-8 mRNA; [4]): negative dose response
MIP-1α expression in fibroblasts (in words) (MIP-1 mRNA): increased expression
survival rate compared with untreated dogs [1]: over doubling the survival rate
C. pneumonia load (C. pneumonia): reduction of C. pneumonia load
MCP-1 expression in fibroblasts (in words) (MCP-1 mRNA): increased expression
MCP-1 mRNA increase (MCP-1 mRNA; synthetic pDAG 3 ng/mL): 3 fold
induction of IL-33 (IL-33 mRNA): found to induce
reduction of the number of white blood cells [2]: nearly threefold
induction of IL-18 (IL-18 mRNA): found to induce
HBV viral load (HBV): reduction of HBV viral load
concentration giving maximal effect (EC99) on secreted IL-8 (IL-8 protein; ELISA, 24 hours): 3 ng/mL
secreted IL-8 protein dose response (IL-8 protein; [4]): positive linear dose response

CCCCC/C=C\C/C=C\C/C=C\C/C=C\CCCC(=O)O[C@@H](CO)COC(=O)CCCCCCCCCCCCCCCCC [diacylglycerol, 1-stearoyl-2-arachidonoyl-sn-glycerol, reference compound]
increase in IL-18 mRNA expression (IL-18 mRNA; diacylglycerol alone, ~30 nM): 20%
